Test results: PubChem BioAssay (NCI)
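Cells were grown in 96-well plates and exposed to each compound for 48 hours at five concentrations; endpoints were interpolated linearly between bracketing concentrations, or set to the highest concentration if not reached. GI50 is the concentration that inhibits growth by half. The concentration for full growth arrest is given as TGI.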

Key:
Test in all cases: NCI tumour cell line growth inhibition, 48 h
MCF7 breast = test system: MCF7 breast
M19-MEL melanoma = test system: M19-MEL melanoma
KM20L2 colon = test system: KM20L2 colon
DLD-1 colon = test system: DLD-1 colon
XF 498 CNS = test system: XF 498 CNS
SNB-78 CNS = test system: SNB-78 CNS
LXFL 529 NSCLC = test system: LXFL 529 NSCLC
MDA-N = test system: MDA-N
RXF-631 renal = test system: RXF-631 renal

| Compound | GI50 (MCF7 breast) [µM] | TGI (MCF7 breast) [µM] | TGI (M19-MEL melanoma) [µM] | TGI (KM20L2 colon) [µM] | TGI (DLD-1 colon) [µM] | TGI (XF 498 CNS) [µM] | TGI (SNB-78 CNS) [µM] | TGI (LXFL 529 NSCLC) [µM] | TGI (MDA-N) [µM] | TGI (RXF-631 renal) [µM] |
| --- | --- | --- | --- | --- | --- | --- | --- | --- | --- | --- |
| c1cncc(-c2nc3ccccc3s2)c1 | > 100 | > 100 | – | – | – | – | – | – | – | – |
| N#Cc1ccc(C2C3=C(CCCC3=O)OC3=C2C(=O)c2ccccc2C3=O)cc1 (stereo not drawn) | 0.664 | 2.65 | – | – | – | – | – | – | – | – |
| COc1ccc(-c2cn(-c3cccc(C(=O)/C=C/c4ccc(O)c(OC)c4)c3)c(=O)[nH]2)cc1 | 2.66 | 22 | – | – | – | – | – | – | – | – |
| COc1ccc(-c2nnc(-c3c(C)n(C)n(-c4ccccc4)c3=O)o2)cc1 | – | – | > 100 | > 100 | > 100 | > 100 | > 100 | > 100 | – | – |
| O=C1C(Cl)=C(Nc2cccc(O)c2)C(=O)N1Cc1ccc(Cl)cc1 | 2.75 | 14.6 | – | – | – | – | – | – | – | – |
| CCn1c2ccc(C(=O)CCCN(C)C)cc2c2cc(C(=O)CCCN(C)C)ccc21 | – | 13.1 | – | – | – | – | – | – | 6.8 | – |
| Cc1ccc(S(=O)(=O)C2c3nc4ccccc4cc3-c3nc4ccccc4nc32)cc1 (stereo not drawn) | – | – | > 100 | > 100 | > 100 | > 100 | > 100 | > 100 | – | – |
| CCN(CC)CCCC(C)Nc1c2ccc(Cl)cc2nc2cc(OC)c(OC)cc12 (stereo not drawn) | 0.656 | 2.9 | – | – | – | – | – | – | – | – |
| O=C1c2cc(-c3ccccc3)ccc2-c2c1c1ccc([N+](=O)[O-])cc1c(=O)n2CCCBr | > 46.4 | > 50 | – | – | – | – | – | – | – | – |
| N#Cc1ccc(Nc2cnc3ccc(N)cc3n2)cc1 | – | – | > 100 | > 100 | > 100 | > 100 | > 100 | > 100 | – | – |
| CC(=O)OCc1ccc(O)c(C=O)c1 | – | > 100 | – | – | – | – | – | – | > 100 | – |
| CCCCCCCCC(O)C#CC(N)=O (stereo not drawn) | – | – | 24.4 | 35.1 | 21.8 | 30.8 | 57.5 | 23.3 | – | 29.8 |
| O=c1nc(NC(c2ccccc2)(c2ccccc2)c2ccccc2)ccn1CCO | – | – | – | > 100 | > 100 | – | > 100 | > 100 | – | – |
| Cc1ccc(C(=O)N2CCN(C(=O)c3ccc(C)cc3)c3ccccc32)cc1 | – | > 100 | > 100 | > 32.6 | > 100 | 70 | > 100 | > 100 | > 100 | – |
| CCC(=O)C(C)C(=O)C(=O)C(=O)OC (stereo not drawn) | – | – | > 100 | > 100 | > 100 | > 100 | > 100 | > 100 | – | > 100 |
| COc1cc2c(cc1OC)C(CC1(O)CCCCC1)N(S(=O)(=O)c1ccc(C)cc1)CC2 (stereo not drawn) | > 10 | > 10 | – | – | – | – | – | – | – | – |
| Nc1nc(NC2C=C(CO)C(O)C2O)c([N+](=O)[O-])c(=O)[nH]1 (stereo not drawn) | – | – | > 100 | > 100 | > 100 | > 100 | > 100 | > 100 | – | – |
